{
  "source": "patent US6821530B2",
  "about": "“Polymer composite compositions” (Shriners Hospitals for Children, priority 2000, dated 2004)",
  "key": {"[1]": {"test_system": "confluent tendon fibroblasts", "assay": "Cytotoxicity test of NDGA and its oxidation products, CYQUANT viable cell number", "assay_type": "cell-based, calf", "experimental": "(§1) Cell cultures: Digital extensor tendons were excised fresh from new born calves euthanized at a local abattoir and held in Dulbecco's Phosphate Buffered Saline during dissection and preparation for culture. Tendons were minced, weighed, and then digested with 0.1% w/v testicular hyaluronidase in 0.15 M NaCl, 0.1 M NaH2PO4, pH 7.0 (5 ml/g wet tissue weight) at 37° C. for 45 minutes. The hyaluronidase wash was decanted and the tissue was next digested with 5 mg/g tissue of Pronase E and 5 mg/g tissue of collagenase in 4% bovine serum albumen in DMEM/Ham F12 medium at 37° C. overnight. Cells were isolated from the tissue residue and washed with PBS. Cells were dispersed in DMEM/Ham F12 medium, counted, and plated on 24-well culture plates. Cells were cultured in DMEM/Ham F12 containing 10% FBS unless otherwise noted.\nCytotoxicity tests: The potential toxicity of NDGA, its reaction products, and the NDGA cross-linked fibers was determined using confluent tendon fibroblasts. NDGA was tested by dissolving NDGA in DMSO, then directly diluting in the medium containing 10% FBS to the desired final concentrations. […] Fibroblasts were cultured in the presence of NDGA or its oxidation products for 24 hours, and then the number of viable cells was measured with the CYQUANT® Cell Proliferation Assay Kit (Molecular Probes)."}, "[2]": {"test_system": "primary tendon fibroblast cultures", "assay": "Fibroblast replication after single NDGA exposure", "assay_type": "cell-based, calf", "experimental": "as §1\nEffect of NDGA on fibroblast replication. To determine whether NDGA or oxidation products derived from the cross-linking reaction influenced cell replication, primary tendon fibroblast cultures were treated with a single exposure at the start of culture with concentrations of NDGA from […]. Fibroblasts were subsequently cultured for 1, 2, and 4 weeks. At each time point, the number of viable cells in each treatment group was determined. The lower NDGA concentrations, […], had no effect on cell replication (FIG. 15)."}, "[3]": {"assay": "NDGA quantitation in culture medium by capillary zone electrophoresis", "assay_type": "physicochemical", "set-up": "Initial NDGA remaining in medium: dose or concentration left out as unconfirmed", "experimental": "NDGA Quantitation: The amount of NDGA in the buffers, eluents, and medium was determined by capillary zone electrophoresis on a Dionex CES. A sodium borate buffer (10 mM sodium borate, 50 mM boric acid, pH 8.0) was chosen for electrophoresis because it was known that borate efficiently complexes with catechols and increases absorptivity (Waite et al., Methods. Enzymol. 107:397-413, 1984). Samples were diluted in electrophoresis buffer, loaded by electrophoresis (5000 V for 5 seconds) onto a […] inner diameter×80 cm long hollow glass capillary, and electrophoresed at 20 kV. NDGA was detected by absorbance at 280 nm. The amount of NDGA in the experimental samples was calculated from the peak area following calibration of the NDGA standards dissolved directly in capillary zone electrophoresis (CZE) buffer. Based on capillary zone electrophoretic analysis of NDGA-containing medium, NDGA disappears from the medium with time in culture, even in the absence of cells (FIGS. 13A and 13B). NDGA was dissolved in DMSO to 10 mM and then diluted 100-fold into the medium. For the zero time point, the medium containing NDGA was diluted 3-fold with CZE buffer and electrophoresed immediately. For the 24 hour time point, the medium was incubated at 37° C. in a cell culture incubator before diluting 3-fold and electrophoresing. […] The fate of the NDGA is unclear. Its disappearance may involve oxidation of the catechols to quinones, since the medium developed a brown pigment similar to that formed from chemically oxidized NDGA. In the medium containing […] NDGA, less than 10% of the initial NDGA remained after 24 hours, decreasing the NDGA concentration to below […] (FIGS. 13A and 13B)."}, "[4]": {"conditions": "medium containing, after 24 hours"}},
  "data": [
    {"smiles": "CC(Cc1ccc(O)c(O)c1)C(C)Cc1ccc(O)c(O)c1", "note": "(centres unmarked) [NDGA, Nordihydroguaiaretic acid]", "values": [
      {"measurement": "Reduction in viable cells", "setting": "[1]; 1000 mM NDGA, after 24 hr", "result": 80, "unit": "%"},
      {"measurement": "Effect on cell viability over that of DMSO alone", "setting": "[1]; NDGA at 1, 10, and 100 mM, 24 hours of exposure", "result": "little effect"},
      {"measurement": "Effect on cell replication", "setting": "[2]; 1 and 10 mM NDGA, culture 1, 2, 4 weeks", "result": "no effect"},
      {"measurement": "Effect on cell replication", "setting": "[2]; highest NDGA concentration", "result": "toxic to the cells"},
      {"measurement": "Effect on cell replication", "setting": "[2]; one hundred millimolar NDGA, after first week rate similar to control", "result": "temporary delay in replication"},
      {"measurement": "NDGA vanished from medium", "setting": "[3]; 10 mM in DMSO diluted 100-fold into medium, 37° C., no cells, by 24 hours", "result": "over 95%"},
      {"measurement": "Initial NDGA remaining in medium", "setting": "[3]; [4]", "result": "less than 10%"},
      {"measurement": "NDGA concentration in medium", "setting": "[3]; [4]", "result": "below 100 mM"}
    ]}
  ]
}
